Data on eleven compounds can be found in patent US7179627B2, “Cyclooxygenase variants and methods of use” (Brigham Young University, priority 2001, dated 2007).

The target of series [1] is T1, COX-3 (Canis lupus familiaris, UniProt Q8HZR1, E597Q).
T1 construct: V5-His (vector name only); expressed in transfected cells; host or cells: Sf9 insect cells infected with recombinant baculovirus (pBlueBac 4.5/V5-His)
T1 sequence (Q8HZR1 1-633 isoform Q8HZR1-2 E627Q): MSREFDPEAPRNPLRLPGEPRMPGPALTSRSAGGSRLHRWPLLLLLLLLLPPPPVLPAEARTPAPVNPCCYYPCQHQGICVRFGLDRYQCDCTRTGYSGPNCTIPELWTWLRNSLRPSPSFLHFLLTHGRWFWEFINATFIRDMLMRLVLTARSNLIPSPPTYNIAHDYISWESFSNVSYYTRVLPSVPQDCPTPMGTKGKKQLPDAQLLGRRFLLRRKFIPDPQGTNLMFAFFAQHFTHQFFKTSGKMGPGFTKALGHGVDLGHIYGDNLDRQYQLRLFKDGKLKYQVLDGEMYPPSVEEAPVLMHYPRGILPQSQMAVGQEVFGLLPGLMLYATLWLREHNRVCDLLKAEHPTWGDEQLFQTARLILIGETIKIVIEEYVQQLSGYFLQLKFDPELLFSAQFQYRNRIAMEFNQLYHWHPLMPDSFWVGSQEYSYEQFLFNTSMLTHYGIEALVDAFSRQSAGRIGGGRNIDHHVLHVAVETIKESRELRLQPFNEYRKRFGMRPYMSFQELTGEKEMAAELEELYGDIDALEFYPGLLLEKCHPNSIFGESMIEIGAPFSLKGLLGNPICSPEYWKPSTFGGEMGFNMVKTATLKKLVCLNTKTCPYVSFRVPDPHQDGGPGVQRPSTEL
Description: COX activity (PGE2 formation by RIA) in insect cells expressing COX-3, drug inhibition. In kind it is cell-based, canine. Conditions: for IC50: insect cells, PGE2 by RIA. How it is done: (§1) Both COX-3 and PCOX-1a were cloned into the baculovirus expression vector pBlueBac 4.5/V5-His (Invitrogen). Sf9 cells (˜1×10^6) were infected with viral stocks at a multiplicity of infection (MOI) of 3 for expression of COX-3, PCOX-1a, mouse COX-1 and mouse COX-2.
(§2) Sf9 cells were infected with a high titer viral stock at a MOI of3 and cultured for 48 hr. Infected cells expressing COX-3 were aliquoted into tubes (˜1.5×10^6 cells) and centrifuged (1000×g, 5 min). The supernatant was discarded and the cell pellet resuspended in 100 μl serum-free media containing the drug to be tested and preincubated at room temperature for 30 minutes. […] Samples were then centrifuged and 100 μl of the supernatant was assayed for COX activity by RIA for PGE2. Assays were performed multiple times in triplicate. Inhibition curves were constructed and IC50 values were determined using Prism® 3.0 (GraphPad, San Diego).

Another series deals with T2, mouse COX-1 (Mus musculus, UniProt P22437).
T2 construct: expressed in transfected cells; host or cells: Sf9 insect cells infected with recombinant baculovirus
T2 sequence (P22437 27-602): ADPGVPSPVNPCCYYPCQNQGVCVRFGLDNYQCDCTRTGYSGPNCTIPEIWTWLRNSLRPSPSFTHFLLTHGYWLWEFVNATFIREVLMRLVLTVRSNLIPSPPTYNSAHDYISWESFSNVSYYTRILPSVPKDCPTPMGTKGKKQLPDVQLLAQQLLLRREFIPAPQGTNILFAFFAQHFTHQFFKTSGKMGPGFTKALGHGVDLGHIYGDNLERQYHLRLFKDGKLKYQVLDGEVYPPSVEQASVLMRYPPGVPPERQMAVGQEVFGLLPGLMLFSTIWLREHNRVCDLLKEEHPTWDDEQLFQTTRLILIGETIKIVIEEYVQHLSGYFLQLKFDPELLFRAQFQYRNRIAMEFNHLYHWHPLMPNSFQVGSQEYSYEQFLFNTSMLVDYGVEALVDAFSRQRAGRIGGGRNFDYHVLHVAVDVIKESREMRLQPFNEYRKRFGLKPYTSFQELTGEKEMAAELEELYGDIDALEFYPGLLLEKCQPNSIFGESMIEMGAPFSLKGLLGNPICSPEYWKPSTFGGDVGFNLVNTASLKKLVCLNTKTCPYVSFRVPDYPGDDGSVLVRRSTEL
Description: COX activity (PGE2 formation by RIA) in insect cells expressing COX-1, drug inhibition. Conditions: for IC50: 30 μM arachidonic acid, insect cells, PGE2 by RIA, read-out: IC50, μM COX-1. In kind it is cell-based. Here is the method:
as §1
Sf9 cells were infected with a high titer viral stock at a MOI of3 and cultured for 48 hr. Infected cells expressing COX-3 were aliquoted into tubes (˜1.5×10^6 cells) and centrifuged (1000×g, 5 min). The supernatant was discarded and the cell pellet resuspended in 100 μl serum-free media containing the drug to be tested and preincubated at room temperature for 30 minutes. Arachidonic acid (100 μl, final concentration 5 or 30 μM) was then added, mixed and incubated (37° C., 10 min). Samples were then centrifuged and 100 μl of the supernatant was assayed for COX activity by RIA for PGE2. Assays were performed multiple times in triplicate. Inhibition curves were constructed and IC50 values were determined using Prism® 3.0 (GraphPad, San Diego).

For a further series, the target named is T3, mouse COX-2 (Mus musculus, UniProt Q05769).
T3 construct: expressed in transfected cells; host or cells: Sf9 insect cells infected with recombinant baculovirus
T3 sequence (Q05769 18-604): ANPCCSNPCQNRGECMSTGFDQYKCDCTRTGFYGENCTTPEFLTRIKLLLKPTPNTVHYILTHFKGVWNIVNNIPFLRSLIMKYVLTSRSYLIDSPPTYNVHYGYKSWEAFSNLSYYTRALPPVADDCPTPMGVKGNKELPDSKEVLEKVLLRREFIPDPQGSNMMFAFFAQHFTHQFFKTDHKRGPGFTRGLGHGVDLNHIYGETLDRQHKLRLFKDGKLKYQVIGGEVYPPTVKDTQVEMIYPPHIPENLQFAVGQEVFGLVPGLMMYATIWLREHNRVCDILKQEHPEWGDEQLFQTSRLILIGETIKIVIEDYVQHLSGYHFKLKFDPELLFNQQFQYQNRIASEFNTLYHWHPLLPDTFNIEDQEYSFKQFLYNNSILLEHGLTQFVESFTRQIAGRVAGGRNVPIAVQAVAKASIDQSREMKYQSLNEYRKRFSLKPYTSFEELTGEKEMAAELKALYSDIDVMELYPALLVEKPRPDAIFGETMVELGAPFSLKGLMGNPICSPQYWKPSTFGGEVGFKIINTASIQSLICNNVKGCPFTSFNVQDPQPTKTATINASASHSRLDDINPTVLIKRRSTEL
Description: COX activity (PGE2 formation by RIA) in insect cells expressing COX-2, drug inhibition. In kind it is cell-based. Conditions: for IC50: 30 μM arachidonic acid, insect cells, PGE2 by RIA, read-out: IC50, μM COX-2. Here is the method:
as §1, §2

For series [2], the system named is COX-3. Put plainly: COX activity of intact tunicamycin-treated insect cells by RIA. Conditions: 10 μg/ml, harvested after 48 hr. In kind it is cell-based, canine. How it is done: Tunicamycin was added to a final concentration of 10 μg/ml to insect cells 1 hr after infection with baculovirus constructs. The cells were cultured and harvested after 48 hr. COX activity of intact cells was determined by radioimmunoassay (RIA) (Salmon, 1978). COX activity in intact Tu-treated cells was compared with activity in untreated cells infected with the appropriate virus (MOI=3).

For series [3] the following is noted: active breakdown product of dipyrone; cited from earlier work.
Where [4] appears, read: substrate conditions of 30 μM arachidonic acid, read-out: IC50 value for COX-3.
Where [5] appears, read: 30 μM arachidonic acid, read-out: IC50, μM COX-3.

pIC50: −log10 of the molar value. Read-outs that look alike come from different tables or passages of the source.

Regarding `O=C([O-])c1ccccc1O.[Na+]` [sodium salicylate], on COX-3 [1], the “sensitivity of COX-3 to the drug compared with COX-1 or COX-2” value is “less sensitive”.

Regarding `Cc1c(N(C)C)c(=O)n(-c2ccccc2)n1C` [Aminopyrine, 4-dimethylaminoantipyrine], the IC50 on mouse COX-1 and on mouse COX-2 was above 1000 µM throughout. For the same compound, the pIC50 at COX-3 [1] (setting [4]) is 3.16.

As for `CC(=O)Oc1ccccc1C(=O)O` [Aspirin], the IC50 on COX-3 [1] (setting [5]) stood at 3.1 µM.

`CCOc1ccc(NC(C)=O)cc1` [Phenacetin]: the IC50 at mouse COX-1 and on mouse COX-2 was above 1000 µM each time. The pIC50 at COX-3 [1] (setting [4]) was 3.99.

On to `Cc1c(N(C)CS(=O)(=O)[O-])c(=O)n(-c2ccccc2)n1C.[Na+]` [Dipyrone], for which the “concentration inhibiting COX-1, fold higher than COX-3 IC50” value at mouse COX-1 (30 μM arachidonic acid (FIG. 13, panel D)) was determined as 6.6 fold. The IC50 on mouse COX-1 is 350 µM; at mouse COX-2, above 1000 µM. Moreover, the “inhibition of COX-2” value at mouse COX-2 (below 1 mM) is listed as “No detectable inhibition”. Also, the negative-log IC50 (pIC50) on COX-3 [1] (setting [4]) is 4.28.

Turning to `O=C1CCC(N2C(=O)c3ccccc3C2=O)C(=O)N1` (stereo not drawn) [Thalidomide], the IC50 on mouse COX-1, on mouse COX-2 and on COX-3 [1] (setting [5]) was above 1000 µM in each case.

Take `Cn1c(=O)c2c(ncn2C)n(C)c1=O` [Caffeine]: the IC50 on mouse COX-1, on mouse COX-2 and at COX-3 [1] (setting [5]) was above 1000 µM in each case.

As to `O=C(O)Cc1ccccc1Nc1c(Cl)cccc1Cl` [Diclofenac], the pIC50 on mouse COX-1 was 7.46.

Consider `Cc1cc(=O)n(-c2ccccc2)n1C` [Antipyrine], for which the pIC50 against mouse COX-1 is below 3.00; against mouse COX-2, below 3.00; at COX-3 [1] (IC50 value for COX-3, substrate conditions of 30 μM arachidonic acid), 3.06. At COX-3 [1] (IC50, μM COX-3, 30 mM arachidonic acid), the IC50 came to 863 µM.

For the compound tunicamycin, in the series on COX-3 [2], the “COX activity in cells treated with tunicamycin” value was “significantly decreased or abolished”.

Regarding `CNc1c(C)n(C)n(-c2ccccc2)c1=O` [4-methylaminoantipyrine], in series [3], the “concentration reached in plasma” value was 104 µM and the “concentration reached in the central nervous system” value was 86 µM.
